Laboratory results: patent US20220354852A1, “TARGETING WNT SIGNALING FOR IMPROVED GLIOMA IMMUNOTHERAPY” (CITY OF HOPE, priority 2021, published 2022)
“Also recorded” adds a separate entry of the source.

What was measured:
[1] = system: murine-derived glioma cell lines (K-luc, GL261-parental, and GL261.IL13Rα2 engineered); test: ICG-001 single agent on murine-derived glioma cell lines (growth kinetics); assay type: cell-based, mouse; details: ICG-001 0-10 μM, 4 days
Procedure: (§1) FIG. 11. (A, B) Growth kinetics of human PBT glioma lines (PBT017, PBT030, PBT135, PBT144, and PBT147) treated with ICG-001 (0-10 μM) for 7 days and (C) mouse glioma cells (GL261, GL261-IL13, and K-luc) treated with ICG-001 (0-10 μM) for 4 days. Red boxes indicate PBT030 and PBT147 cell lines used for Nanostring and proteomics analysis. Scale bars represent S.D. of triplicate samples. (D-F) Growth kinetics of PBT017 (2,500 cells/well) treated with or without HER2-CAR T cells (500 cells/well) and with or without ICG-001 (0-5 μM). The red line is CAR T cell treatment only and the bottom three lines are with ICG-001. Experiment was done in quadruplicate and error bars indicate S.D.
ICG-001 activity in vitro in human and mouse glioma cell lines. Initially, the effects of the specific CBP/β-catenin antagonist ICG-001 was tested in vitro as a single agent on human and mouse glioma cell lines (5 PBT human and 3 mouse glioma lines).

[2] = system: PBT017 and PBT106 derived lines that express high levels of the tumor antigen HER2; test: In vitro co-culture cytotoxicity assay, HER2-CAR T cells ± ICG-001; assay type: cell-based, human
Procedure: FIG. 2. Combinational strategy of CAR T cell-mediated tumor-antigen targeting with ICG-001 induced differentiation in glioma. […] (B) Cytotoxicity of HER2 CAR-T cells and tumor cells (1:5 ratio) was enhanced by ICG-001 at concentrations 1.25-5 μM. (C) Treatment of PBT138 patient glioma tumors with CAR T IL13Rα2+/−ICG-001.
as §1
FIG. 13 illustrates data resulting from the combination of ICG001 and CAR T cells toxicity in vitro using 2000 cells to start and 4 days (96-well Endpoint—cell count) according to certain embodiments.
FIG. 14 illustrates data resulting from the Combination of ICG001 and CAR T cells toxicity in vitro using 1000 cells to start and 4 days (96-well Endpoint—cell count) according to certain embodiments.
It has also been observed that ICG-001-induced differentiation of PBT017 and PBT138 (data not shown).
Next, the efficacy of a titrated dose of CAR T cells±ICG-001 to induce tumor cell killing in vitro was tested (FIG. 11D-F). The combination of HER2-engineered CAR T (HER2-CAR T) cells and IGC-001 was evaluated using in vitro co-culture assays.

[3] = system: CAR T cells (HER2 and mock); test: Viability and cell count of CAR T / mock T cells treated with ICG-001; assay type: cell-based; details: ICG001 0, 2.5, 5 uM for 24-72 h
Procedure: (§2) FIG. 27. T cells treated with ICG001 2.5 and 5 μM for 24 or 72 h. (A) CAR Ts mock and HER2 from one donor and mock CARs derived from two additional donors were plated on 6-well format plates and treated with ICG001 at concentrations 0-5 μM for 24 or 72 h. Cells were collected from each well, counted, and viability was determined. (B, C) NanoString analysis of T cells treated with ICG-001 to determine concentration-dependent metabolic changes. […] (E) Correlation of differential gene expression in all T cell lines combined at concentration of 2.5 and 5 μM.
FIG. 29 is a bar graph showing the results of studies where CAR T calls are treated with ICG001 for 24 hours according to some embodiments. To determine how treatment with ICG001 affects the T cells, the following method was employed. On day 1, CAR Ts HER 2 or Mock CARs derived from the same donor and additional 2 donor mock cells were plated on 6 well format plates and treated with ICG001 0 uM, 2.5 uM, 5 uM for 24-72 h. On day 5, cells were collected per well, counted, cell viability was determined [pellets were frozen]. […] Note: CAR T from 494 donor treated with ICG001 were used in cytotoxicity assay #19 in comparison with untreated 4949 CARs.

[4] = system: T cells derived from 3 donors; test: NanoString gene expression analysis of T cells treated with ICG-001; assay type: cell-based; details: ICG-001 2.5 or 5 μM
Procedure: as §2
Antagonism of WNT/CBP/β-catenin signaling effects CAR T cells. Wnt signaling plays critical roles in T cell development and commitment (Li et al. 2019). Thus, the combined data derived from all T cell lines used and compared with untreated controls was analyzed for each T cell line.
However, at a higher concentration of ICG-001, a higher degree of differential gene expression was observed. […]

[5] = Orthotopic syngeneic murine hepatocellular carcinoma model (qRT-PCR, IHC); assay type: in vivo; details: IHC, minimally 10 fields counted
Description: (§3) CXCL9 and CXCL10, are produced mainly by BATF3 dendritic cells that are required for Teff trafficking. The CXCL9, CXCL10, CXCL11/CXCR3 signaling axis is critical for activated T-helper type 1 (Th1), cytotoxic T-cell (CTL), and natural killer (NK) cell recruitment immune cell recruitment in vivo. A similar effect resulting from ICG-001 is likely, such as increased CD8^+T-cell infiltration into brain tumors (FIG. 3B).

[6] = system: interferon-y regulated chemokines CXCL9-11 in the TME; test: as above; assay type: in vivo; details: qRT-PCR, previously demonstrated
Description: as §3

[7] = system: tumor cell glycolytic activity; details: previously shown; cited from earlier work

Compound: O=C1[C@H](Cc2ccc(O)cc2)N2C(=O)CCN(C(=O)NCc3ccccc3)[C@H]2CN1Cc1cccc2ccccc12 [ICG-001]
- effect on cell growth (growth kinetics) [1]: concentration dependent cytostatic effect
- cytotoxicity of HER2 CAR-T cells ([2]; CAR-T cells and tumor cells 1:5 ratio, ICG-001 1.25-5 μM): enhanced
- tumor cell killing at given effector: target cell ratios ([2]; HER2-CAR T cells + ICG-001, effector: target cell ratios of 1:5 and 1:10): Enhanced killing
- tumor cell killing, ICG-001 in combination with HER2-CAR T cells ([2]; PBT017 (and PBT106) lines, ICG-001 0-5 μM): synergistic cytotoxicity; also recorded: synergistic killing
- killing by CAR T cells of ICG-001-treated tumor cells ([2]; Tumor[PBT106.eGFP]: CAR T [Her2] cells in ratios (1:2; 1:2, 1:4)): improved killing by CAR T cells
- CAR T cell viability and proliferation [3]: not toxic to T cells in vitro
- CAR T cell viability and proliferation ([3]; listed as ICG001): not affecting Car T cell viability and proliferation
- T cell differentiation [4]: directed T cell differentiation into multiple types of effector and memory T cells
- expression of DPP4, CD48, CEBPB, B2M, ICOSLG, CD81, CXCR4, XBP1, NFIL3, and others in T cells ([4]; 24 or 72 h): upregulation of key genes
- CD8+ T cell infiltration into the tumor microenvironment [5]: increased CD8+ T cell infiltration
- expression of interferon-y regulated chemokines CXCL9-11 in the TME [6]: significantly increased; also recorded: increased the expression
- glycolytic activity and extracellular acidification of tumor cells [7]: decrease in glycolytic activity and extracellular acidification
